Assay results published in patent US20250179429A1, “CELL CULTURE MEDIUM” (Auckland UniServices Limited, priority 2017, published 2025).
Entries after “also recorded” stand apart in the source; their conditions may differ. Structures can show the parent of a compound that is named as a salt. Where two headings read alike, the source gives them in different places.

Tests used:
[1] = test system: Human primary keratinocytes; assay: Keratinocyte growth in culture media: rhodamine B staining, confluency measured with Operetta plate reader; assay type: cell-based; conditions: for effect of ROCK inhibitor on keratinocyte growth, FIG. 3: Y27632 10 μm vs SB772077B 400 nM in Base, Kelch's or Green's medium, 3 donors; for effect of Y27632 on keratinocyte growth, FIG. 5: 8 days
epidermal cells = assay: Greens, Cellntech, S7, EDGS medium comparison (rhodamine B, confluency score 0 to 4); assay type: cell-based; conditions: added to Green's medium with MEFs and commercial keratinocyte growth media
Procedure: Epidermal cells were grown in Greens medium with MEFs, CnT Prime, Epilife medium supplemented with S7 or EDGS. All media were tested with and without ROCK inhibitor Y27632. 550,000 epidermal cells were grown in each medium until one sample reached 80% confluence, at this point all samples were fixed and stained for rhodamine B. Sample confluency was then assigned a score between 0 and 4, 0 having no cells, and 4 having maximum confluency. N=2.
Flasks were pre-coated with a coating matrix for S7 and EDGS supplemented Epilife medium samples. 1.7 ml of dilution buffer was added to each T25 flask. Then 17 μl of coating matrix was added. The mixture was incubated at room temperature for 30 minutes. Next, the dilution buffer and coating matrix mix were removed from the flasks before adding cells and media.
550,000 epidermal cells and 5 ml of each required medium was added, with or without 10 μl Y27632, to a T25 flask. The flask was incubated at 37° C. with 5% CO2 until one sample reached 80% confluency.
Next, the medium was removed from the flasks and the cells fixed with 4% formaldehyde for 30 minutes. 1% rhodamine B solution was added and the cells incubated at room temperature for 10 minutes. The rhodamine B solution was removed and the cells thoroughly rinsed with water. Finally, all liquid from the flasks was removed using a pipette. The cells were imaged and confluency was calculated.

[2] = Green's media + Y27632, MEFs not present

choleratoxin
effect on keratinocyte growth of leaving one component out of Green's media, FIG. 1 [1]: important components of Green's medium in generating keratinocyte proliferation; also recorded: negatively affect keratinocyte growth; also recorded: one of the most important single ingredients of Green's media

CCn1c(-c2nonc2N)nc2cncc(C(=O)N3CC[C@H](N)C3)c21 [SB772077B, (3S)-1-[[2-(4-Amino-1,2,5-oxadiazol-3-yl)-1-ethyl-1H-imidazo[4,5-c]pyridin-7-yl]carbonyl]-3-pyrrolidinamine dihydrochloride, reference compound]
ROCK inhibitor concentration to achieve the same effect (enhancing keratinocyte growth rates) ([1]; SB 772077B vs Y27632): ~400 nm | effect of ROCK inhibitor on keratinocyte growth, FIG. 3 ([1]; dihydrochloride): comparable effects on keratinocyte growth; also recorded: can be used as substitute for Y27632 for keratinocyte growth

EGF: epidermal growth factor, component of Green's medium at 10 ng/ml (NSDSECPLSHDGYCLHDGVCMYIEALDKYACNCVVGYIGERCQYRDLKWWELR; Epidermal growth factor; UniProt P01133 971-1023, looked up)
effect on keratinocyte growth of leaving one component out of Green's media, FIG. 1 [1, 2]: important components of Green's medium in generating keratinocyte proliferation; also recorded: negatively affect keratinocyte growth | effect of EGF on keratinocyte growth (later finding) ([1]; data not shown): not enhancing keratinocyte growth

Nc1ncnc2nc[nH]c12 [adenine]
effect on keratinocyte growth of leaving one component out of Green's media, FIG. 1 [1, 2]: appears to enhance growth of keratinocytes

C[C@@H](N)[C@H]1CC[C@H](C(=O)Nc2ccncc2)CC1 [Y27632, reference compound]
effect of ROCK inhibitor on keratinocyte growth, FIG. 3 [1]: comparable effects on keratinocyte growth | ROCK inhibitor concentration to achieve the same effect (enhancing keratinocyte growth rates) ([1]; Y27632 vs SB 772077B): 10 μm | effect of Y27632 on keratinocyte growth, FIG. 5 ([1]; added to Green's medium with MEFs): can enhance growth of keratinocytes | effect of Y27632 on keratinocyte growth, FIG. 5 ([1]; added to serum-free Optipeak media): enhanced growth of keratinocytes; also recorded: a few colonies started to develop | effect of Y27632 on keratinocyte growth, FIG. 6 (epidermal cells): may also enhance growth of keratinocytes in other keratinocyte growth media; also recorded: enhanced keratinocyte growth in Green's medium, S7 medium and CnT Prime medium
